Results reported in publication PMC8452690, “Structural basis for small molecule targeting of Doublecortin Like Kinase 1 with DCLK1-IN-1” (Communications Biology, 2021).

Key:
DCLK1-FL1Δ D511N = biological target: T1, DCLK1-FL1Δ D511N (Homo sapiens, UniProt O15075, D511N); assay: Thermal shift stability assay, DCLK1-FL1Δ D511N; type: binding; details: D511N mutant, 2.5-40 μM
T1 construct: DCLK1-FL1Δ (residues 50-686); 8XHis tag with TEV protease cleavage site (N); made in house; host or cells: Escherichia coli C41(DE3)
Experimental: DCLK1 proteins were diluted in 150 mM NaCl, 20 mM Tris pH 8.0, 1 mM DTT to […] final concentration and assayed with the appropriate concentration of inhibitor in a total reaction volume of 25 μL. SYPRO Orange (Molecular Probes) was used as a fluorescence probe and detected at 530 nm. The data shown are representative of two independent experiments.

[1] = biological target: T2, DCLK1-FL1Δ D511N tubulin polymerisation (MAP function) (Homo sapiens, UniProt O15075, D511N); assay: Tubulin polymerisation and pelleting assay with DCLK1-FL1Δ D511N; type: biochemical
T2 construct: DCLK1-FL1Δ (residues 50-686); 8XHis tag with TEV protease cleavage site (N); made in house; host or cells: Escherichia coli C41(DE3)
T2 sequence (O15075 50-686 isoform O15075-2 D511N): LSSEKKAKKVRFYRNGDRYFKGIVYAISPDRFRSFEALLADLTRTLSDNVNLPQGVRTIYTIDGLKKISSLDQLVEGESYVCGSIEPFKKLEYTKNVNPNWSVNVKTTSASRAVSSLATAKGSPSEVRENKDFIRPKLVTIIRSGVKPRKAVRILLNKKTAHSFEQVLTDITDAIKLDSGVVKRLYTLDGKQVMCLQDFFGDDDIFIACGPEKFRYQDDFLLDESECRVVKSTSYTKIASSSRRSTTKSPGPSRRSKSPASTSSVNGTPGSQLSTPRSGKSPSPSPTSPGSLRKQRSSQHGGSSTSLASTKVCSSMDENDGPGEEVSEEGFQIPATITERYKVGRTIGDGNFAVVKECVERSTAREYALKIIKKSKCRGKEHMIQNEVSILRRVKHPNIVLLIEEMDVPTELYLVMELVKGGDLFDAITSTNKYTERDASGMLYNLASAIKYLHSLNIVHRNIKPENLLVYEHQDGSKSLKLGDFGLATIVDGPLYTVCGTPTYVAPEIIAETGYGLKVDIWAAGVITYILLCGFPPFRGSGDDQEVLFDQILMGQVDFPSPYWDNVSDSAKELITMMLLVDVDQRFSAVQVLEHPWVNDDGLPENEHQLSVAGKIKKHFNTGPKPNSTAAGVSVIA
Experimental: (§1) Tubulin polymerisation assays were performed in buffer containing 80 mM PIPES at pH 6.9, 2.0 mM MgCl2, 0.5 mM EGTA, 2.5 mM β,γ-Methyleneguanosine 5’-triphosphate, and 10 μM tubulin and 5 μM DCLK1 for 1 h at 37 °C. For tubulin polymerisation in the presence of inhibitors, various concentrations of the inhibitors were first incubated with DCLK1 and allowed to stand on ice for 5 min before adding this mix to the tubulin polymerisation reaction. Following the tubulin polymerisation, the reaction mix was pelleted at 20,000 g for 20 min and the supernatant and the pellet fractions were run on a 12% SDS gel. The data shown are representative of two independent experiments.

tubulin = assay: Tubulin polymerisation in the absence of DCLK1 (pelleting and fluorescence assays); type: biochemical; details: absence of DCLK1-FL1Δ D511N
Experimental: as §1
Tubulin polymerisation assay were performed using the Microtubule Polymerisation/Depolymerisation Fluorescence Kit (Cytoskeleton #BK011P) in accordance with the manufacturer’s instructions. DCLK1 (4 μΜ) was added to 50 μL tubulin reaction mix containing Buffer 1 (80 mM PIPES at pH 6.9, 2.0 mM MgCl2, 0.5 mM EGTA, 10 μM fluorescent reporter), guanosine triphosphate stock solution at 100 mM, and tubulin (10 mg/ml) stock solution, as described by the manufacturer. […] Polymerisation leads to fluorescence enhancement due to incorporation of a fluorescence reporter into polymerising microtubules and was measured by excitation at 355 nm and emission at 460 nm. Readings were taken every 20 s on EnVision Multimode Plate Reader. […]

COc1cc(N2CCN(C)CC2)ccc1Nc1ncc2c(n1)N(C)c1ccccc1C(=O)N2CC(F)(F)F [DCLK1-IN-1]
melting temperature change versus control compound DCLK1-NEG (DCLK1-FL1Δ D511N): increased | effect on DCLK1-FL1Δ D511N ability to polymerise tubulin ([1]; 20 μM or 40 μM, pelleting / SDS-PAGE (Fig. 5d)): did not impact | aggregation and pelleting of DCLK1-FL1Δ D511N upon centrifugation ([1]; 40 μM, without tubulin polymerisation (Fig. 5d lanes 12, 13)): does not cause | tubulin polymerisation and stabilisation by compound alone (tubulin): does not promote tubulin polymerisaton and stabilisation
